Measurements from patent publication US20260007133A1, “HERBICIDAL COMPOSITION COMPRISING AZINE COMPOUNDS” (BASF SE, priority 2022, published 2026).
Like-named read-outs stand apart in the source and are kept apart here.

Legend:
Type in all cases: in vivo
Abutilon theophrasti [1] = assay: Greenhouse post-emergence (POST) herbicidal test on ABUTH; settings: for % activity: ABUTH POST
Experimental: (§1) The culture containers used were plastic pots containing loamy sand with approximately 3.0% of humus as substrate. The seeds of the test plants were sown separately for each species.
(§2) For the post-emergence treatment, the test plants were grown to a plant height of from 3 to 15 cm, depending on the plant habit, and only then treated with the active compounds which had been suspended or emulsified in water. To this end, the test plants were either sown directly, and grown in the same containers, or they were first grown separately as seedlings and transplanted into the test containers a few days prior to treatment.
(§3) Depending on the species, the plants were kept at 10-25° C. and 20-35° C., respectively.
(§4) The test period extended over 2 to 4 weeks. During this time, the plants were tended and their response to the individual treatments was evaluated.
(§5) Evaluation was carried out using a scale from 0 to 100. 100 means no emergence of the plants, or complete destruction of at least the above-ground parts, and 0 means no damage or normal course of growth. A good herbicidal activity is given at values of at least 70, and very good herbicidal activity is given at values of at least 85.
(§6) If not stated differently, the respective components A and B, and if appropriate, C were formulated as a 5% by weight strength emulsion concentrate and, with addition of the amount of solvent system, introduced into the spray liquor used for applying the active compound.
(§7) As indicated application was either post emergent (POST) at the respective growth stage (GS) of the weed (BBCH code), or pre-emergent (PRE). […]

Digitaria sanguinalis = assay: Greenhouse post-emergence (POST) herbicidal test on DIGSA; settings: for % activity: DIGSA POST
Experimental: as §1, §2, §3, §4, §5, §6, §7

Ipomoea hederacea = assay: Greenhouse post-emergence (POST) herbicidal test on IPOHE; settings: for % activity: IPOHE POST
Experimental: as §1, §2, §3, §4, §5, §6
As indicated application was either post emergent (POST) at the respective growth stage (GS) of the weed (BBCH code), or pre-emergent (PRE).
Assessment was 20 days after treatment (DAT).

Abutilon theophrasti [2] = assay: Greenhouse pre-emergence (PRE) herbicidal test on ABUTH; settings: Abutilon theophrasti, pre-emergence, 480 h, PRE, 20 DAT
Experimental: as §1
(§8) The containers were irrigated gently to promote germination and growth and subsequently covered with transparent plastic hoods until the plants had rooted.
as §3, §4, §5, §7

Alopecurus myosuroides = assay: Greenhouse pre-emergence (PRE) herbicidal test on ALOMY; settings: Alopecurus myosuroides, pre-emergence; for inhibition at 6.25 g/ha: read-out: % activity
Experimental: as §1, §8, §3, §4, §5, §7

Ambrosia artemisiifolia = assay: Greenhouse pre-emergence (PRE) herbicidal test on AMBEL; settings: Ambrosia artemisiifolia, pre-emergence, 480 h, PRE, AMBEL, 20 DAT, read-out: solo application % activity
Experimental: as §1, §8, §3, §4, §5, §7

Euphorbia heterophylla [3] = assay: Greenhouse pre-emergence (PRE) herbicidal test on EPHHL; settings: Euphorbia heterophylla, pre-emergence, 480 h, PRE, 20 DAT
Experimental: as §1, §8, §3, §4, §5, §7

Amaranthus retroflexus = assay: Greenhouse post-emergence (POST) herbicidal test on AMARE
Experimental: as §1, §2, §3, §4, §5, §6, §7

Euphorbia heterophylla [4] = assay: Greenhouse post-emergence (POST) herbicidal test on EPHHL; settings: for % activity: EPHHL POST
Experimental: as §1, §2, §3, §4, §5, §6, §7

Geranium pusillum = assay: Greenhouse post-emergence (POST) herbicidal test on GERPU; settings: Geranium pusillum, post-emergence
Experimental: as §1, §2, §3, §4, §5, §6, §7

Lolium multiflorum = assay: Greenhouse pre-emergence (PRE) herbicidal test on LOLMU; settings: Lolium multiflorum, pre-emergence, 480 h
Experimental: as §1, §8, §3, §4, §5, §7

Setaria viridis = assay: Greenhouse pre-emergence (PRE) herbicidal test on SETVI; settings: Setaria viridis, pre-emergence; for inhibition at 6.25 g/ha / inhibition at 12.5 g/ha: read-out: % activity
From the text: as §1
For the pre-emergence treatment, the active compounds, suspended or emulsified in water, were applied directly after sowing by means of finely distributing nozzles. The containers were irrigated gently to promote germination and growth and subsequently covered with transparent plastic hoods until the plants had rooted. This cover caused uniform germination of the test plants unless this was adversely affected by the active compounds.
as §3, §4, §5, §6, §7

Echinochloa crus-galli [5] = assay: Greenhouse post-emergence (POST) herbicidal test on ECHCG; settings: Echinochloa crus-galli, post-emergence
Experimental: as §1, §2, §3, §4, §5, §6, §7

Commelina benghalensis = assay: Greenhouse pre-emergence (PRE) herbicidal test on COMBE; settings: Commelina benghalensis, pre-emergence, read-out: % activity
Experimental: as §1, §8, §3, §4, §5, §7

Echinochloa crus-galli [6] = assay: Greenhouse pre-emergence (PRE) herbicidal test on ECHCG; settings: Echinochloa crus-galli, pre-emergence, 480 h, read-out: % activity
Experimental: as §1, §8, §3, §4, §5, §7

[7] = Amaranthus retroflexus, post-emergence, read-out: % activity

With `Cc1cccc(C2CC2)c1Oc1nnc(Cl)cc1OC(=O)N1CCOCC1` [Cyclopyrimorate, cyclopyrimorate] the “% activity” value (Abutilon theophrasti [1]; use rate 25 gai/ha) was 5%, the “% activity” value (Digitaria sanguinalis; use rate 25 gai/ha) was 10% and the “% activity” value (Digitaria sanguinalis; use rate 200 gai/ha) was 40%. For the same compound, the “% activity” value (Ipomoea hederacea; use rate 25 gai/ha) was 40%.
In the case of `CCCC(=NOCC)C1=C(O)CC(C2CCCSC2)CC1=O` (centres unmarked) [Cycloxydim, cycloxydim], the pest or weed control at 5 g/ha (Abutilon theophrasti [2]; 5 gai/ha) was 0%, the inhibition at 5 g/ha (Abutilon theophrasti [2]; ABUTH, use rate 5 gai/ha, read-out: solo application % activity) was 0% and the pest or weed control at 20 g/ha (Alopecurus myosuroides; 480 h, PRE, 20 gai/ha, 20 DAT) was 60%. It also gave an inhibition at 5 g/ha (Alopecurus myosuroides; 480 h, PRE, ALOMY, use rate 5 gai/ha, 20 DAT, read-out: solo application % activity) of 15%, an inhibition at 20 g/ha (Alopecurus myosuroides; 480 h, PRE, ALOMY, use rate 20 gai/ha, 20 DAT, read-out: solo application % activity) of 60% and an inhibition at 5 g/ha (Ambrosia artemisiifolia; use rate 5 gai/ha) of 0%. For the same compound, the inhibition at 20 g/ha (Ambrosia artemisiifolia; use rate 20 gai/ha) was 0%, the pest or weed control at 5 g/ha (Euphorbia heterophylla [3]; 5 gai/ha) was 5% and the inhibition at 5 g/ha (Euphorbia heterophylla [3]; EPHHL, use rate 5 gai/ha, read-out: solo application % activity) was 5%. For the same compound, the inhibition at 20 g/ha (Euphorbia heterophylla [3]; EPHHL, use rate 20 gai/ha, read-out: solo application % activity) was 10%, the pest or weed control at 5 g/ha (Abutilon theophrasti [1]; Abutilon theophrasti, post-emergence, 480 h, POST, 5 gai/ha, 20 DAT) was 0% and the inhibition at 5 g/ha (Abutilon theophrasti [1]; Abutilon theophrasti, post-emergence, 480 h, POST, ABUTH, use rate 5 gai/ha, 20 DAT, read-out: solo application % activity) was 0%. It also gave an inhibition at 20 g/ha (Abutilon theophrasti [1]; Abutilon theophrasti, post-emergence, 480 h, POST, ABUTH, use rate 20 gai/ha, 20 DAT, read-out: solo application % activity) of 0%, an inhibition at 5 g/ha (Amaranthus retroflexus; Amaranthus retroflexus, post-emergence, 480 h, POST, AMARE, use rate 5 gai/ha, 20 DAT, read-out: solo application % activity) of 0% and an inhibition at 20 g/ha (Euphorbia heterophylla [4]; Euphorbia heterophylla, post-emergence, 480 h, POST, EPHHL, use rate 20 gai/ha, 20 DAT, read-out: solo application % activity) of 0%. For the same compound, the inhibition at 5 g/ha (Geranium pusillum; 480 h, POST, GERPU, use rate 5 gai/ha, 20 DAT, read-out: solo application % activity) was 5%, the pest or weed control at 5 g/ha (Ipomoea hederacea; Ipomoea hederacea, post-emergence, 480 h, POST, 5 gai/ha, 20 DAT) was 0% and the inhibition at 5 g/ha (Ipomoea hederacea; Ipomoea hederacea, post-emergence, 480 h, POST, IPOHE, use rate 5 gai/ha, 20 DAT, read-out: solo application % activity) was 0%. For the same compound, the inhibition at 20 g/ha (Ipomoea hederacea; Ipomoea hederacea, post-emergence, 480 h, POST, IPOHE, use rate 20 gai/ha, 20 DAT, read-out: solo application % activity) was 0%.
In the case of `C#CCN1C(=O)COc2cc(F)c(N3C(=O)C4=C(CCCC4)C3=O)cc21` [Flumioxazin, flumioxazin], the inhibition at […] (Abutilon theophrasti [2]; ABUTH, use rate 0.25 gai/ha, read-out: solo application % activity) was 0%, the inhibition at 0.5 g/ha (Abutilon theophrasti [2]; ABUTH, use rate 0.5 gai/ha, read-out: solo application % activity) was 0% and the inhibition at 1 g/ha (Abutilon theophrasti [2]; ABUTH, use rate 1 gai/ha, read-out: solo application % activity) was 0%. It also gave an inhibition at […] (Alopecurus myosuroides; 480 h, PRE, ALOMY, use rate 0.25 gai/ha, 20 DAT, read-out: solo application % activity) of 0%, an inhibition at 0.5 g/ha (Alopecurus myosuroides; 480 h, PRE, ALOMY, use rate 0.5 gai/ha, 20 DAT, read-out: solo application % activity) of 0% and an inhibition at 0.5 g/ha (Ambrosia artemisiifolia; use rate 0.5 gai/ha) of 0%. For the same compound, the inhibition at 2 g/ha (Ambrosia artemisiifolia; use rate 2 gai/ha) was 0%, the inhibition at […] (Euphorbia heterophylla [3]; EPHHL, use rate 0.25 gai/ha, read-out: solo application % activity) was 0% and the inhibition at 0.5 g/ha (Euphorbia heterophylla [3]; EPHHL, use rate 0.5 gai/ha, read-out: solo application % activity) was 5%. The inhibition at 1 g/ha (Euphorbia heterophylla [3]; EPHHL, use rate 1 gai/ha, read-out: solo application % activity) was 5%, the inhibition at 2 g/ha (Euphorbia heterophylla [3]; EPHHL, use rate 2 gai/ha, read-out: solo application % activity) was 10% and the inhibition at 0.5 g/ha (Lolium multiflorum; PRE, LOLMU, use rate 0.5 gai/ha, 20 DAT, read-out: solo application % activity) was 0%. For the same compound, the inhibition at 0.5 g/ha (Setaria viridis; 480 h, PRE, SETVI, use rate 0.5 gai/ha, 20 DAT, read-out: solo application % activity) was 0%, the inhibition at 1 g/ha (Setaria viridis; 480 h, PRE, SETVI, use rate 1 gai/ha, 20 DAT, read-out: solo application % activity) was 0% and the inhibition at 2 g/ha (Setaria viridis; 480 h, PRE, SETVI, use rate 2 gai/ha, 20 DAT, read-out: solo application % activity) was 0%. It also gave an inhibition at 2 g/ha (Abutilon theophrasti [1]; Abutilon theophrasti, post-emergence, 480 h, POST, ABUTH, use rate 2 gai/ha, 20 DAT, read-out: solo application % activity) of 70%, an inhibition at 1 g/ha (Digitaria sanguinalis; Digitaria sanguinalis, post-emergence, 480 h, POST, DIGSA, use rate 1 gai/ha, 20 DAT, read-out: solo application % activity) of 10% and an inhibition at 2 g/ha (Digitaria sanguinalis; Digitaria sanguinalis, post-emergence, 480 h, POST, DIGSA, use rate 2 gai/ha, 20 DAT, read-out: solo application % activity) of 25%. It also gave an inhibition at 0.5 g/ha (Echinochloa crus-galli [5]; 480 h, POST, ECHCG, use rate 0.5 gai/ha, 20 DAT, read-out: solo application % activity) of 0%, an inhibition at 1 g/ha (Echinochloa crus-galli [5]; 480 h, POST, ECHCG, use rate 1 gai/ha, 20 DAT, read-out: solo application % activity) of 5% and an inhibition at 2 g/ha (Echinochloa crus-galli [5]; 480 h, POST, ECHCG, use rate 2 gai/ha, 20 DAT, read-out: solo application % activity) of 30%. The inhibition at 1 g/ha (Euphorbia heterophylla [4]; Euphorbia heterophylla, post-emergence, 480 h, POST, EPHHL, use rate 1 gai/ha, 20 DAT, read-out: solo application % activity) was 60% and the inhibition at 2 g/ha (Geranium pusillum; 480 h, POST, GERPU, use rate 2 gai/ha, 20 DAT, read-out: solo application % activity) was 45%.
For `O=C(O)CNCP(=O)(O)O` [Glyphosate, glyphosate], the inhibition at 200 g/ha (Abutilon theophrasti [1]; Abutilon theophrasti, post-emergence, read-out: % activity) was 25%, the inhibition at 100 g/ha (Amaranthus retroflexus; [7]) was 10% and the inhibition at 200 g/ha (Amaranthus retroflexus; [7]) was 80%. For the same compound, the inhibition at 100 g/ha (Echinochloa crus-galli [5]; read-out: % activity) was 30%, the inhibition at 200 g/ha (Echinochloa crus-galli [5]; read-out: % activity) was 35% and the inhibition at 100 g/ha (Geranium pusillum; read-out: % activity) was 45%. For the same compound, the inhibition at 200 g/ha (Ipomoea hederacea; Ipomoea hederacea, post-emergence, read-out: % activity) was 15%.
Compound `CCC/C(=N\OCC)C1=C(O)CC(CC(C)SCC)CC1=O` (centres unmarked) [Sethoxydim, sethoxydim] has an inhibition at 6.25 g/ha (Alopecurus myosuroides; 480 h) of 20%, an inhibition at 6.25 g/ha (Alopecurus myosuroides) of 20% and an inhibition at 6.25 g/ha (Commelina benghalensis) of 0%. It also gave an inhibition at 6.25 g/ha (Echinochloa crus-galli [6]) of 10%, an inhibition at 12.5 g/ha (Echinochloa crus-galli [6]) of 40% and an inhibition at 6.25 g/ha (Lolium multiflorum; read-out: % activity) of 15%. For the same compound, the inhibition at 6.25 g/ha (Setaria viridis; 480 h) was 5%, the inhibition at 12.5 g/ha (Setaria viridis; 480 h) was 60% and the inhibition at 6.25 g/ha (Setaria viridis) was 5%. For the same compound, the inhibition at 12.5 g/ha (Setaria viridis) was 60%.
`CN1C[C@H](c2cccc(C(F)(F)F)c2)[C@@H](C(=O)Nc2ccccc2F)C1=O` [Tetflupyrolimet, tetflupyrolimet] was tested, and the “% activity” value (Abutilon theophrasti [1]; use rate 250 gai/ha) was 5%, the “% activity” value (Amaranthus retroflexus; AMARE POST, use rate 250 gai/ha) was 35% and the “% activity” value (Euphorbia heterophylla [4]; use rate 31.25 gai/ha) was 0%. For the same compound, the “% activity” value (Euphorbia heterophylla [4]; use rate 250 gai/ha) was 0% and the “% activity” value (Ipomoea hederacea; use rate 31.25 gai/ha) was 0%.
